From patent publication US7504400B2, “MTP inhibiting aryl piperydines or piperazines substituted with 5-membered heterocycles” (Janssen Pharmaceutica N.V., priority 2004, dated 2009)

System: Secretion of ApoB
Assay: Quantification of the secretion of ApoB in HepG2 cells
Type: cell-based
Conditions: Homo sapiens, HepG2, 24 h, 24 hours of incubation with test compound, immunoprecipitation of apoB from medium, read-out: pIC50 value (=-log IC50 value), secretion of ApoB (converted)
Description: HepG2 cells were cultured in 24-well plates in MEM Rega 3 containing 10% fetal calf serum. At 70% confluency, the medium was changed and the test compound or carrier (DMSO, 0.4% final concentration) was added. After 24 hours of incubation, the medium was transferred to Eppendorf tubes and cleared by centrifugation. A sheep antibody directed against either apoB was added to the supernatant and the mixture was kept at 8° C. for 24 hours. Then, rabbit anti-sheep antibody was added and the immune complex was allowed to precipitate for 24 hours at 8° C. The immunoprecipitate was pelleted by centrifugation for 25 minutes at 1320 g and washed twice with a buffer containing 40 mM Mops, 40 mM NaH2PO4, 100 mM NaF, 0.2 mM DTT, 5 mM EDTA, 5 mM EGTA, 1% Triton-X-100, 0.5% sodium deoxycholate (DOC), 0.1% SDS, 0.2 μM leupeptin and 0.2 μM PMSF. Radioactivity in the pellet was quantified by liquid scintillation-counting. The IC50 values are usually converted to pIC50 values (=−log IC50 value) for ease of use.

IC50 [nM]	SMILES
< 31.6	CCOC(=O)[C@H](c1ccccc1)N1CCN(c2ccc(-n3ccn([C@H](C)c4ccccc4)c3=O)cc2)CC1 (relative stereo) [Compound 267]
31.6 to 316	CCOC(=O)[C@@H](c1ccccc1)N1CCN(c2ccc(-n3cnn([C@@H](C)c4ccccc4)c3=O)cc2)CC1 (relative stereo) [Compound 281]
316 to 3160	CCOC(=O)[C@@H](c1ccccc1)N1CCN(c2ccc(-n3cnn([C@H](C)c4ccc(F)cc4)c3=O)cc2)CC1 (relative stereo) [Compound 298]
31.6 to 316	CCOC(=O)[C@@H](c1ccccc1)N1CCN(c2ccc(-n3cnn([C@@H](C)c4ccc(F)cc4)c3=O)cc2)CC1 (relative stereo) [Compound 299]
316 to 3160	CCOC(=O)[C@@H](c1ccccc1)N1CCN(c2ccc(-n3cnn([C@H](C)c4ccccc4)c3=O)cc2)CC1 (stereo in doubt) [Compound 280]
31.6 to 316	CCOC(=O)[C@H](c1ccccc1)N1CCN(c2ccc(-n3cnn([C@@H](C)c4ccccc4)c3=O)cc2)CC1 (stereo in doubt) [Compound 304]
31.6 to 316	CCCN(CCC)C(=O)C(CCN1CCN(c2ccc(-n3ncn(C(C)C)c3=O)cc2)CC1)c1ccccc1 (stereo not shown) [Compound 3]
316 to 3160	COCCNC(=O)C(c1ccccc1)N1CCN(c2ccc(-n3cnn(C(C)C)c3=O)cn2)CC1 (stereo not shown) [Compound 4]
31.6 to 316	CC(C)n1ncn(-c2ccc(N3CCN(CC(C(=O)N(C)C)c4ccccc4)CC3)cc2)c1=O (stereo not shown) [Compound 6]
31.6 to 316	CC(C)NC(=O)C(c1ccccc1)N1CCN(c2ccc(-n3cnn(C(C)C)c3=O)cc2)CC1 (stereo not shown) [Compound 7]
31.6 to 316	CC(C)n1ncn(-c2ccc(N3CCN(C(C(=O)Nc4ccccc4)c4ccccc4)CC3)cc2)c1=O (stereo not shown) [Compound 8]
316 to 3160	CCCC(C(=O)OCC)N1CCN(c2ccc(-n3cnn(C(C)C)c3=O)cc2)CC1 (stereo not shown) [Compound 9]
316 to 3160	CC(C)n1ncn(-c2ccc(N3CCN(C(C(=O)Nc4ccncc4)c4ccccc4)CC3)cc2)c1=O (stereo not shown) [Compound 10]
< 31.6	CC(C)n1ncn(-c2ccc(N3CCN(C(C(=O)Nc4ccc5c(c4)CCC5)c4ccccc4)CC3)cc2)c1=O (stereo not shown) [Compound 11]
316 to 3160	Cc1cccc(NC(=O)C(c2ccccc2)N2CCN(c3ccc(-n4cnn(C(C)C)c4=O)cc3)CC2)n1 (stereo not shown) [Compound 12]
316 to 3160	CCOC(=O)C(c1cccs1)N1CCN(c2ccc(-n3cnn(C(C)C)c3=O)cc2)CC1 (stereo not shown) [Compound 13]
316 to 3160	CC(C)n1ncn(-c2ccc(N3CCN(C(C(=O)Nc4cccc5cccnc45)c4ccccc4)CC3)cc2)c1=O (stereo not shown) [Compound 15]

IC50 [nM]	SMILES
316 to 3160	CC(C)n1ncn(-c2ccc(N3CCN(C(C(=O)Nc4cccnc4)c4ccccc4)CC3)cc2)c1=O (stereo not shown) [Compound 16]
316 to 3160	CCOC(=O)C(c1ccccc1)N1CCN(c2ccc(-n3cnn(C(C)C)c3=O)cc2)CC1 (stereo not shown) [Compound 17]
316 to 3160	CNC(=O)C(c1ccccc1)N1CCN(c2ccc(-n3cnn(C(C)C)c3=O)cn2)CC1 (stereo not shown) [Compound 18]
31.6 to 316	CCC(C)n1ncn(-c2ccc(N3CCN(C(C(=O)NC(C)C)c4ccccc4)CC3)cc2)c1=O (stereo not shown) [Compound 21]
31.6 to 316	CCC(C)n1ncn(-c2ccc(N3CCN(C(C(=O)NCc4ccccc4)c4ccccc4)CC3)cc2)c1=O (stereo not shown) [Compound 22]
31.6 to 316	CCC(C)n1ncn(-c2ccc(N3CCN(C(C(=O)Nc4ccccc4)c4ccccc4)CC3)cc2)c1=O (stereo not shown) [Compound 23]
31.6 to 316	CCC(C)n1ncn(-c2ccc(N3CCN(C(C(=O)N(C)C)c4ccccc4)CC3)cc2)c1=O (stereo not shown) [Compound 24]
316 to 3160	CCCNC(=O)C(c1ccccc1)N1CCN(c2ccc(-n3c(-c4ccccc4)nn(C(C)C)c3=O)cc2)CC1 (stereo not shown) [Compound 32]
316 to 3160	COC(=O)C(c1ccccc1)N1CCN(c2ccc(-n3c(-c4ccccc4)nn(C(C)C)c3=O)cc2)CC1 (stereo not shown) [Compound 35]
316 to 3160	COC(=O)C(c1ccccc1)N1CCN(c2ccc(-n3ncn(C(C)C)c3=O)cc2)CC1 (stereo not shown) [Compound 36]
316 to 3160	CCCOC(=O)C(c1ccccc1)N1CCN(c2ccc(-n3cnn(C(C)C)c3=O)cc2)CC1 (stereo not shown) [Compound 38]
316 to 3160	CCNC(=O)C(c1ccccc1)N1CCN(c2ccc(-n3nc(C)n(C(C)C)c3=O)cc2)CC1 (stereo not shown) [Compound 39]
316 to 3160	CCCOC(=O)C(CN1CCN(c2ccc(-n3cnn(C(C)C)c3=O)cc2)CC1)c1ccccc1 (stereo not shown) [Compound 41]
316 to 3160	CCCCNC(=O)C(c1ccccc1)N1CCN(c2ccc(-n3cnn(C(C)C)c3=O)cn2)CC1 (stereo not shown) [Compound 42]
316 to 3160	CC(C)CNC(=O)C(c1ccccc1)N1CCN(c2ccc(-n3cnn(C(C)C)c3=O)cn2)CC1 (stereo not shown) [Compound 43]
31.6 to 316	CCCCCNC(=O)C(c1ccccc1)N1CCN(c2ccc(-n3cnn(C(C)C)c3=O)cn2)CC1 (stereo not shown) [Compound 44]

More lines, now with the values behind:

SMILES	IC50 [nM]
CCOC(=O)[C@H](c1ccccc1)N1CCN(c2ccc(-n3ccn([C@H](C)c4ccc(F)cc4)c3=O)cc2)CC1 (relative stereo) [Compound 268]	31.6 to 316
CCOC(=O)[C@H](c1ccccc1)N1CCN(c2ccc(-n3ccn([C@H](C)c4cccc(C(F)(F)F)c4)c3=O)cc2)CC1 (relative stereo) [Compound 269]	31.6 to 316
CCOC(=O)[C@H](c1ccccc1)N1CCN(c2ccc(-n3ccn([C@H](C)c4ccc(C(F)(F)F)cc4)c3=O)cc2)CC1 (relative stereo) [Compound 270]	31.6 to 316
CCOC(=O)[C@H](c1ccccc1)N1CCN(c2ccc(-n3ccn([C@@H](C)c4ccccc4F)c3=O)cc2)CC1 (relative stereo) [Compound 272]	316 to 3160
CCOC(=O)[C@@H](c1ccccc1)N1CCN(c2ccc(-n3ccn([C@H](C)c4ccc(F)cc4)c3=O)cc2)CC1 (relative stereo) [Compound 273]	316 to 3160
CCOC(=O)[C@@H](c1ccccc1)N1CCN(c2ccc(-n3ccn([C@@H](C)c4cc(C(F)(F)F)cc(C(F)(F)F)c4)c3=O)cc2)CC1 (relative stereo) [Compound 274]	316 to 3160
CCOC(=O)[C@H](c1ccccc1)N1CCN(c2ccc(-n3ccn([C@H](C)c4ccccc4F)c3=O)cc2)CC1 (stereo in doubt) [Compound 271]	31.6 to 316
CCOC(=O)[C@@H](c1ccccc1)N1CCN(c2ccc(-n3ccn([C@@H](C)c4ccccc4F)c3=O)cc2)CC1 (stereo in doubt) [Compound 275]	316 to 3160
CCOC(=O)[C@H](c1ccccc1)N1CCN(c2ccc(-n3ccn(C(C)c4cccc(F)c4)c3=O)cc2)CC1 (stereo in doubt) [Compound 337]	31.6 to 316
CCOC(=O)[C@H](c1ccccc1)N1CCN(c2ccc(-n3ccn(C(C)c4cccc(F)c4F)c3=O)cc2)CC1 (stereo in doubt) [Compound 338]	31.6 to 316
CCOC(=O)[C@H](c1ccccc1)N1CCN(c2ccc(-n3ccn(C(C)c4ccc(F)cc4F)c3=O)cc2)CC1 (stereo in doubt) [Compound 339]	31.6 to 316
CCOC(=O)[C@H](c1ccccc1)N1CCN(c2ccc(-n3ccn(C(C)c4cc(F)ccc4F)c3=O)cc2)CC1 (stereo in doubt) [Compound 340]	31.6 to 316
CCOC(=O)[C@H](c1ccccc1)N1CCN(c2ccc(-n3ccn(C(C)c4ccc(F)c(F)c4)c3=O)cc2)CC1 (stereo in doubt) [Compound 341]	31.6 to 316
CCOC(=O)[C@H](c1ccccc1)N1CCN(c2ccc(-n3ccn(C(C)c4cc(F)cc(F)c4)c3=O)cc2)CC1 (stereo in doubt) [Compound 342]	31.6 to 316
CC(C)n1cnn(-c2ccc(N3CCN(C(C(=O)Nc4ccccc4)c4ccccc4)CC3)cc2)c1=O (stereo not shown) [Compound 5]	316 to 3160
CC(C)n1ncn(-c2ccc(C3CCN(C(C(=O)Nc4ccccc4)c4ccccc4)CC3)cc2)c1=O (stereo not shown) [Compound 19]	31.6 to 316
CC(C)n1ncn(-c2ccc(C3CCN(C(C(=O)NCc4ccccc4)c4ccccc4)CC3)cc2)c1=O (stereo not shown) [Compound 20]	31.6 to 316
O=C(NCc1ccccc1)C(c1ccccc1)N1CCN(c2ccc(-n3nc(-c4ccccc4)n(-c4ccccc4)c3=O)cc2)CC1 (stereo not shown) [Compound 25]	316 to 3160
CCNC(=O)C(c1ccccc1)N1CCN(c2ccc(-n3nc(-c4ccccc4)n(-c4ccccc4)c3=O)cc2)CC1 (stereo not shown) [Compound 26]	316 to 3160
CCNC(=O)C(c1ccccc1)N1CCN(c2ccc(-n3c(-c4ccccc4)nn(-c4ccccc4)c3=O)cc2)CC1 (stereo not shown) [Compound 28]	316 to 3160
COC(=O)C(c1ccccc1)N1CCN(c2ccc(-n3nc(-c4ccccc4)n(-c4ccccc4)c3=O)cc2)CC1 (stereo not shown) [Compound 29]	316 to 3160
CCCNC(=O)C(c1ccccc1)N1CCN(c2ccc(-n3nc(-c4ccccc4)n(C(C)C)c3=O)cc2)CC1 (stereo not shown) [Compound 30]	316 to 3160
CCNC(=O)C(c1ccccc1)N1CCN(c2ccc(-n3c(-c4ccccc4)nn(C(C)C)c3=O)cc2)CC1 (stereo not shown) [Compound 31]	316 to 3160
CC(C)n1nc(-c2ccccc2)n(-c2ccc(N3CCN(C(C(=O)NCc4ccccc4)c4ccccc4)CC3)cc2)c1=O (stereo not shown) [Compound 33]	316 to 3160
COC(=O)C(c1ccccc1)N1CCN(c2ccc(-n3nc(-c4ccccc4)n(C(C)C)c3=O)cc2)CC1 (stereo not shown) [Compound 34]	316 to 3160
CC(C)n1ncn(-c2ccc(N3CCN(C(C(=O)Nc4ccccc4)c4ccccc4)CC3)nc2)c1=O (stereo not shown) [Compound 37]	316 to 3160
Cc1nn(-c2ccc(N3CCN(C(C(=O)NCc4ccccc4)c4ccccc4)CC3)cc2)c(=O)n1C(C)C (stereo not shown) [Compound 40]	316 to 3160
CC(C)n1ncn(-c2ccc(N3CCN(C(C(=O)NCc4ccccn4)c4ccccc4)CC3)nc2)c1=O (stereo not shown) [Compound 45]	316 to 3160
